Results reported in US11655221B2, “Certain (2S)-N-[(1S)-1-cyano-2-phenylethyl]-1,4-oxazepane-2-carboxamides as dipeptidyl peptidase 1 inhibitors” (AstraZeneca AB, priority 2014, dated 2023).

Legend:
[1] = Test B: In-vitro competitive aortic tissue binding assay; parameters: species or system rat; conditions: 100 μM test compound, competition with [14C]-labelled WO2010/128324 Ex. 3, categories strong binder, medium binder, no binder
Experimental: Test B: In-Vitro Competitive Aortic Tissue Binding Assay
Aortic homogenate was prepared from the thoracic aortae of Han Wistar rats. Freshly isolated to thoracic aortae were frozen, and later thawed and stripped of non-elastic material.
Homogenate concentration was adjusted to 30 mg/mL in Puck's saline, and aliquots were stored at −80° C. until use. Positive and negative control compounds and test compounds were made up to 100 mM in DMSO, and added to 1 mL aliquots of aortic homogenate in Puck's saline for a final concentration of 100 μM. Homogenate samples were pre-incubated with test compounds at 37° C., rotating, overnight. [^14C]4-Amino-N-[(1S)-1-cyano-2-(4′-cyanobiphenyl-4-yl)ethyl]tetrahydro-2H-pyran-4-carboxamide was then added to all samples to a final concentration of 100 μM, and samples were incubated at 37° C., rotating, for a further 2 h. Protein was precipitated from each sample by the addition of 10 mL acetone, pre-chilled to −20° C. Samples were left overnight at −20° C. to allow complete precipitation. Precipitate was pelleted by centrifugation at 4,500×g at 4° C. for 20 min, an aliquot of supernatant was removed for analysis, and the remainder of the supernatant discarded. Precipitate was washed by resuspension in 10 mL 80% methanol in distilled water, and re-pelleted by centrifugation at 4,500×g at 4° C. for 20 min. […] After final wash, precipitate was air-dried, and dissolved overnight in 1 mL NCSII Tissue Solubiliser. 1 mL aliquots of supernatants were added to 5 mL Ultima Gold scintillation fluid (Perkin Elmer, MA, U.S.A.), and 1 mL solubilised pellets were added to 5 mL Hionic-Fluor scintillation fluid (Perkin Elmer, Mass., U.S.A.). Radioactivity of samples was determined on a Beckman LS6500 multipurpose scintillation counter (Beckman Coulter, IN, U.S.A.). […] Duplicate samples were tested for each compound on each experimental occasion, and at least two experiments were run for each test compound. […] 1-way ANOVA and Bonferroni's multiple comparison tests were performed to calculate significance of differences from vehicle control.

[2] = target: recombinant human DPP1 (rhDPP1) (Homo sapiens (Human), UniProt P53634); assay: Test A1: Fluorescence assay for recombinant human (RH) DPP1; assay type: biochemical; conditions: Test A1, H-Gly-Arg-AMC substrate, 22° C. (Examples 1-35)
recombinant human DPP1 (rhDPP1), sequence (P53634 231-394): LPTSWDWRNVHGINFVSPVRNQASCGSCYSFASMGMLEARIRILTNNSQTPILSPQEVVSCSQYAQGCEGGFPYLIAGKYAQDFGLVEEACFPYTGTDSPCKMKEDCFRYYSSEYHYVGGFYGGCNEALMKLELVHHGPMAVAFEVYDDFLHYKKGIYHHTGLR
recombinant human DPP1 (rhDPP1), sequence (P53634 25-143): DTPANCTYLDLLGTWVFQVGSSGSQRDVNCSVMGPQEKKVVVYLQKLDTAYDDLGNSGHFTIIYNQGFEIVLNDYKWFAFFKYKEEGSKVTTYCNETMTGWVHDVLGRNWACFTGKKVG
recombinant human DPP1 (rhDPP1), sequence (P53634 395-463): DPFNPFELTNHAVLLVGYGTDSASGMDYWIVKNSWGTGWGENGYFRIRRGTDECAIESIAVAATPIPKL
Experimental: Test A1: Fluorescence Assay for Recombinant Human (RH) DPP1
The activity of DPP1 was determined by measuring the enzymatic release of aminomethyl coumarin (AMC) from the peptide substrate (H-Gly-Arg-AMC), which leads to an increase in fluorescence intensity at λex=350 nm and λem=450 nm. The assay was carried out in black 384 well plates in a final volume of 50 μl at 22° C. The assay conditions contained the following: 25 mM piperazine buffer pH 5.0; 50 mM NaCl, 5 mM DTT; 0.01% (v/v) Triton X-100; 100 μM H-Gly-Arg-AMC and rhDPP1 (˜50 pM). […] Routinely, inhibitors were pre-incubated with rhDPP1 for 30-60 min prior to the addition of the peptide substrate to start the reaction for a further 60 min at 22° C.

[3] = Quantitative whole-body autoradiography (QWBA), aortic retention; assay type: in vivo

Compound	Aortic Tissue Binding [1]	DPP1 activity, pIC50 [2]	aortic retention in rat QWBA studies [3]
N#Cc1ccc(-c2ccc(C[C@@H](C#N)NC(=O)[C@@H]3CCCCN3)cc2)cc1 [WO2009/074829 (Example 24)]	Binder	–	–
Cn1c(=O)oc2ccc(-c3ccc(C[C@@H](C#N)NC(=O)C4(N)CCOCC4)cc3)cc21 [WO2010/128324 (Example 17)]	Strong binder	–	–
Cn1c(=O)oc2ccc(-c3ccc(C[C@@H](C#N)NC(=O)[C@@H]4CCCCN4)cc3)cc21 [WO2009/074829 (Example 96)]	Medium binder	–	–
N#Cc1ccc(-c2ccc(C[C@@H](C#N)NC(=O)C3(N)CCOCC3)cc2)cc1 [WO2010/128324 (Ex. 3), 4-amino-N-[(1S)-1-cyano-2-(4′-cyanobiphenyl-4-yl)ethyl]tetrahydro-2H-pyran-4-carboxamide]	Strong binder (reference)	–	high level of aortic retention

Now from value to compound:

Aortic Tissue Binding [1]	DPP1 activity, pIC50 [2]	aortic retention in rat QWBA studies [3]	Compound
–	7.61	–	CN1C(=O)CNc2ccc(-c3ccc(C[C@@H](C#N)NC(=O)[C@@H]4CNCCCO4)cc3)cc21 [Example 35, (2S)—N-{(1S)-1-Cyano-2-[4-(4-methyl-3-oxo-1,2,3,4-tetrahydroquinoxalin-6-yl)phenyl]ethyl}-1,4-oxazepane-2-carboxamide]
No binder	–	–	Cn1c(=O)oc2ccc(-c3ccc(C[C@@H](C#N)NC(=O)[C@@H]4CNCCCO4)cc3)cc21 [Example 2, (2S)—N-{(1S)-1-Cyano-2-[4-(3-methyl-2-oxo-2,3-dihydro-1,3-benzoxazol-5-yl)phenyl]ethyl}-1,4-oxazepane-2-carboxamide]
